{"source": "patent US20060128792A1", "about": "“Deguelin as a chemopreventive agent for lung cancer” (priority 2002, published 2006)", "key": {"NHBE cells": {"tested_on": "NHBE cells", "test": "Apoptosis assay (TUNEL; DNA fragmentation)", "type": "cell-based", "description": "Apoptosis assay. Normal, premalignant, and malignant HBE cells were exposed to v various doses of deguelin for 3 days. […] Both adherent and floating cells were combined for the assessment of apoptosis using the APO-BRDU staining kit (Phoenix Flow Systems, San Diego, Calif.). Briefly, floating and attached cells dispersed with trypsin-EDTA were pelleted, washed, and fixed by 1% paraformaldehyde followed by 70% ethanol. The fixed cells were washed and incubated with DNA-labeling solution containing terminal deoxynucleotidyl transferase (TdT) reaction buffer, TdT enzyme, and bromodeoxyuridine triphosphate (Br-dUTP). Cells were rinsed, resuspended with fluorescein-PRB-I antibody solution, and analyzed by flow cytometry in the presence of PI/RNase solution. […] A dual display of DNA area (linear red fluorescence) and Br-dUTP incorporation (FITC-PRB-1) was used to determine the percentage of apoptotic cells.\nThe percentage of dead cells was determined by fluorescent-activated cell sorting (FACS) analysis of PI-stained nuclei. Apoptosis was also determined by the detection of nucleosomal DNA fragmentation, which was measured using the TACS apoptotic DNA Jaddering kit (Trevigen, Inc., Gaithersburg, Md.) according to the manufacturer's protocol. […] Apoptosis was analyzed using the APO-BRDU staining kit (Phoenix Flow Systems) as described above."}, "[1]": {"tested_on": "caspase-3, PARP, Bax, Bcl-2, Bcl-xL in 1799 cells", "test": "Western blot of caspase-3, PARP and Bcl family proteins", "type": "cell-based", "description": "Immunoblotting. Whole cell lysates were prepared in lysis buffer (50 mM N-[2-hydroxymethyl]-piperazine-N′-[2-ethanesulfonic acid] [HEPES; pH 7.5], 150 mM NaCl, 1.5 mM MgCl2, ImM EDTA, 0.2 mM EGTA, 1% NP40, 10% glycerol, 1 mM dithiothreitol (DTT), 1 mM phenylmethylsulfonyl fluoride, 20 mM sodium fluoride, 5 mM sodium orthovanadate, 10 μg/ml aprotinin, 10 μg/ml leupeptin, 2 μg/ml pepstatin, and 1 mM benzamidine) as described previously (Lee et al., 2002). Equivalent protein concentrations were resolved in sodium dodecyl sulfate-polyacrylamide gels and transferred to a nitrocellulose membrane. After the blocking of transblotted membrane in Tris-buffered saline (TBS) containing 0.05% Tween 20 (TBST) and 5% low fat milk, themembrane was incubated with primary antibody at the appropriate dilution in TBS-5% low-fat milk at 4° C. for 16 h and washed with TBST. The immunoblots were visualized using the ECL kit (Amersham, Inc., Arlington Heights, III) according to the manufacturer's directions. Rabbit polyclonal antibodies against human pAkt (Ser473), Akt, and pGSK-3β (Ser9), and mouse monoclonal antibody against human anti-pMAPK (Thr202/Tyr204) were purchased from Cell Signalinng Technology (Beverly, Mass.). Rabbit polyclonal anti-glycogen synthase (GSK)-3 α/β (BD Transduction Laboratories, Lexington, Ky.), rabbit polyclonal anti-Bax and anti-caspase-3 antibodies (Pharmingen, San Diego, Calif.), rabbit polyclonal anti-Bcl2 and rabbit polyclonal anti-poly (ADP-ribose) polymerase O?ARP) antibody (VIC 5) (Roche Molecular Biochemicals, Indianapolis, Ind.), goat antibodies against Erk-1, Erk-2, and β-Actin (Santa Cruz Biotechnology, Inc., Santa Cruz, Calif.) were used for western blot analysis."}, "H1299 xenografts": {"tested_on": "H1299 xenografts", "test": "NSCLC xenograft tumor growth", "type": "in vivo, athymic nude mice", "conditions": "4 mg/kg or 8 mg/kg, 5 consecutive days; measured for 15 days; vs control", "description": "The antitumor effect of deguelin was tested using an iii vivo model. H1299 cells were injected into the dorsal flank of athymic nude mice. Once tumor volume reached 40-80 mm^3, treatment for 5 consecutive days with 4 or 8 mg/kg deguelin began. Tumors were measured every other day for 15 days. […] The results are expressed as the mean (±SD) tumor volume (calculated from at least 5 mice) relative to the initial volume."}, "Cal6": {"tested_on": "Cal6", "test": "MTT assay, growth inhibition by deguelin or deguelin derivatives", "type": "cell-based", "conditions": "3 days"}, "H460": {"tested_on": "H460", "test": "MTT assay, growth inhibition by deguelin or deguelin derivatives", "type": "cell-based", "conditions": "H460, 3 days"}, "H226Br": {"tested_on": "H226Br", "test": "MTT assay, growth inhibition by deguelin or deguelin derivatives", "type": "cell-based", "conditions": "3 days"}, "COX-2": {"tested_on": "COX-2", "test": "COX-1 and COX-2 expression by northern and western blotting", "type": "cell-based", "conditions": "premalignant cells (1799, squamous HBE); 1 nM, 10 nM or 100 nM", "description": "COX-2 on the other hand, is found to be induced and expressed in neoplastic growth. […] Thus, it was determined whether deguelin regulates the expression of COX-2 in lung cancer cells. Normal, premalignant, and malignant lung cancer cells, NHBE, 1799, 1198, and 1170, were treated with 1 nM, 10 nM, or 100 nM deguelin for 1 day and COX-1 and COX-2 expression were analyzed by northern blotting.\nIn this study, the protein and mRNA expression of COX-1 and COX-2 were tested in 1799 and squamous (Sq) HBE cells. These cells were treated with 1 nM, 10 nM, or 100 nM deguelin and the COX-1 and COX-2 RNA and analyzed by northern blotting and western blotting. Equal amount of mRNA in each lane was confirmed by northern blot analysis using GAPDH (data not shown)."}}, "note": "“And” between values parts separate entries of the source, which are not always exact repeats. Equal entries are not always repeated."}
{"smiles": "COc1cc2c(cc1OC)[C@@H]1C(=O)c3ccc4c(c3O[C@@H]1CO2)C=CC(C)(C)O4", "note": "[Deguelin]", "values": [{"measurement": "TUNEL and DNA fragmentation in NHBE cells", "setting": "NHBE cells", "result": "neither TUNEL-positive cell population nor DNA fragmentation"}, {"measurement": "Bcl-2 expression", "setting": "[1]", "result": "mild decrease"}, {"measurement": "Bcl-xL level", "setting": "[1]", "result": "not affected"}, {"measurement": "level of Bax", "setting": "[1]", "result": "dose-dependent increase"}, {"measurement": "32-kDa caspase-3 proenzyme (with increase of 89-kDa PARP fragment)", "setting": "[1]; more than 10^−8 M deguelin, 3 days", "result": "significant decrease"}, {"measurement": "growth of NSCLC xenografts (tumor volume relative to initial volume)", "setting": "H1299 xenografts", "result": "inhibited"}, {"measurement": "Avg. % con", "setting": "Cal6; deguelin 10^−6M", "result": 0.24, "unit": "% con"}, {"measurement": "MTT value, mean of replicates (unheaded line)", "setting": "Cal6; deguelin 10^−6M", "result": 0.094}, {"measurement": "MTT value, replicate (unheaded line)", "setting": "Cal6; deguelin 10^−6M", "result": "0.098 and 0.106 and 0.078"}, {"measurement": "Avg. % con", "setting": "Cal6; deguelin 10^−8M", "result": 0.88, "unit": "% con"}, {"measurement": "MTT value, mean of replicates (unheaded line)", "setting": "Cal6; deguelin 10^−8M", "result": 0.345}, {"measurement": "MTT value, replicate (unheaded line)", "setting": "Cal6; deguelin 10^−8M", "result": "0.356 and 0.338 and 0.341"}, {"measurement": "Avg. % con", "setting": "Cal6; deguelin 10^−10M", "result": 0.93, "unit": "% con"}, {"measurement": "MTT value, mean of replicates (unheaded line)", "setting": "Cal6; deguelin 10^−10M", "result": 0.364}, {"measurement": "MTT value, replicate (unheaded line)", "setting": "Cal6; deguelin 10^−10M", "result": "0.332 and 0.386 and 0.374"}, {"measurement": "Avg. % con", "setting": "Cal6; deguelin 10^−12M", "result": 0.92, "unit": "% con"}, {"measurement": "MTT value, mean of replicates (unheaded line)", "setting": "Cal6; deguelin 10^−12M", "result": 0.360}, {"measurement": "MTT value, replicate (unheaded line)", "setting": "Cal6; deguelin 10^−12M", "result": "0.357 and 0.358 and 0.366"}, {"measurement": "Avg. % con", "setting": "H460; deguelin 10^−6M", "result": 0.17, "unit": "% con"}, {"measurement": "MTT value, mean of replicates (unheaded line)", "setting": "H460; deguelin 10^−6M", "result": 0.129}, {"measurement": "MTT value, replicate (unheaded line)", "setting": "H460; deguelin 10^−6M", "result": "0.115 and 0.141 and 0.131"}, {"measurement": "Avg. % con", "setting": "H460; deguelin 10^−8M", "result": 0.86, "unit": "% con"}, {"measurement": "MTT value, mean of replicates (unheaded line)", "setting": "H460; deguelin 10^−8M", "result": 0.635}, {"measurement": "MTT value, replicate (unheaded line)", "setting": "H460; deguelin 10^−8M", "result": "0.632 and 0.652 and 0.62"}, {"measurement": "Avg. % con", "setting": "H460; deguelin 10^−10M", "result": 1.03, "unit": "% con"}, {"measurement": "MTT value, mean of replicates (unheaded line)", "setting": "H460; deguelin 10^−10M", "result": 0.762}, {"measurement": "MTT value, replicate (unheaded line)", "setting": "H460; deguelin 10^−10M", "result": "0.783 and 0.761 and 0.743"}, {"measurement": "Avg. % con", "setting": "H460; deguelin 10^−12M", "result": 1.06, "unit": "% con"}, {"measurement": "MTT value, mean of replicates (unheaded line)", "setting": "H460; deguelin 10^−12M", "result": 0.788}, {"measurement": "MTT value, replicate (unheaded line)", "setting": "H460; deguelin 10^−12M", "result": "0.797 and 0.75 and 0.816"}, {"measurement": "Av. % con", "setting": "H226Br; deguelin 10^−6M", "result": 0.82, "unit": "% con"}, {"measurement": "MTT value, mean of replicates (unheaded line)", "setting": "H226Br; deguelin 10^−6M", "result": 0.266}, {"measurement": "MTT value, replicate (unheaded line)", "setting": "H226Br; deguelin 10^−6M", "result": "0.264 (2×) and 0.271"}, {"measurement": "Av. % con", "setting": "H226Br; deguelin 10^−8M", "result": 0.85, "unit": "% con"}, {"measurement": "MTT value, mean of replicates (unheaded line)", "setting": "H226Br; deguelin 10^−8M", "result": 0.276}, {"measurement": "MTT value, replicate (unheaded line)", "setting": "H226Br; deguelin 10^−8M", "result": "0.296 and 0.273 and 0.259"}, {"measurement": "Av. % con", "setting": "H226Br; deguelin 10^−10M", "result": 1.02, "unit": "% con"}, {"measurement": "MTT value, mean of replicates (unheaded line)", "setting": "H226Br; deguelin 10^−10M", "result": 0.330}, {"measurement": "MTT value, replicate (unheaded line)", "setting": "H226Br; deguelin 10^−10M", "result": "0.321 and 0.329 and 0.34"}, {"measurement": "Av. % con", "setting": "H226Br; deguelin 10^−12M", "result": 0.96, "unit": "% con"}, {"measurement": "MTT value, mean of replicates (unheaded line)", "setting": "H226Br; deguelin 10^−12M", "result": 0.310}, {"measurement": "MTT value, replicate (unheaded line)", "setting": "H226Br; deguelin 10^−12M", "result": "0.3 and 0.318 and 0.313"}, {"measurement": "induced COX-2 expression", "setting": "COX-2", "result": "downregulated"}]}
